Data set [1] has as its system Cardiac muscle cell. In words: Anticardiac hypertrophic activity in phenylephrine-induced hypertrophy in neonatal Sprague-Dawley rat cardiomyocyte assessed as decrease in NPPB mRNA expression at 5 to 50 uM preincubated for 12 hrs followed by phenylephrine stimulation and measured after 48 hrs by qRT-PCR analysis. Type of data set: functional, cell-based. To be noted: dose 5-50 µM, time 60.0 hrs. For orientation: Quantitative PCR measures a nucleic acid by following its amplification.

For data set [2], the system named is Cardiac muscle cell. In words: Anticardiac hypertrophic activity in phenylephrine-induced hypertrophy in neonatal Sprague-Dawley rat cardiomyocyte assessed as decrease in ANP protein expression at 5 to 50 uM preincubated for 12 hrs followed by phenylephrine stimulation and measured after 48 hrs by Western blot analysis. Type of data set: functional, cell-based. To be noted: dose 5-50 µM, time 60.0 hrs.

The test system of data set [3] is Cardiac muscle cell. As to the kind of experiment: Anticardiac hypertrophic activity in phenylephrine-induced hypertrophy in neonatal Sprague-Dawley rat cardiomyocyte assessed as decrease in NPPA mRNA expression at 5 to 50 uM preincubated for 12 hrs followed by phenylephrine stimulation and measured after 48 hrs by qRT-PCR analysis. It is filed as functional, cell-based. To be noted: dose 5-50 µM, time 60.0 hrs.

The nature of data set [4]: Cytotoxicity against neonatal Sprague-Dawley rat cardiomyocyte assessed as reduction in ANP expression incubated for 48 hrs by ELISA assay. It is filed as toxicity, cell-based, Cardiac muscle cell. To be noted: neonatal rat cardiomyocytes.

The IC50 is the midpoint of a concentration-inhibition curve.

Each structure is given as a SMILES string. Active and inactive are the calls of the source. The calls are words filed in the database; no cut-off is given here.

On to `C=C[C@@]12C=C(C)C(=O)C=C1[C@]1(C)CC[C@@H](O)C(C)(C)[C@H]1CC2`, for which the Activity entry with Cardiac muscle cell [1] and in the data set with Cardiac muscle cell [3] was “Dose-Dependent Effect” each time. Besides, the result in the data set with Cardiac muscle cell [2] was Active. The IC50 at 48 h in data set [4] was determined as 41.8 µM.
Consider `COC(=O)c1cc2c(cc1OC)[C@]1(C)CCC(=O)C(C)(C)C1=C(O)C2=O`, for which the Activity entry in the data set with Cardiac muscle cell [1] and with Cardiac muscle cell [3] was “Dose-Dependent Effect” in each case. In the data set on Cardiac muscle cell [2], the outcome was Active. Besides, the IC50 at 48 h in data set [4] came to 52.3 µM.

Source of the values: ChEMBL document CHEMBL5316359, “Strophioblachins A-K, Structurally Intriguing Diterpenoids from Strophioblachia fimbricalyx with Potential Anticardiac Hypertrophic Inhibitory Activity” (J Nat Prod, 2023).
